Reference: patent publication US4637902A, “Mixed anhydrides of carbamic and hydroxamic acids” (Fuji Photo Film Co., Ltd., priority 1983, dated 1987)

Assay: Measurement of Decomposition Rate of Base Precursor (gelatin film on triacetyl cellulose, absorbance change)
Assay type: physicochemical
Settings: for Half-Life Period t1/2: 140° C.; for K at 140° C. (× 10^2), first-order reaction rate constant: head multiplier × 10^2
Procedure: Measurement of Decomposition Rate of Base Precursor About 400 mg of the base precursor of the present invention was dissolved in 25 ml of methanol. Separately, 400 mg of gelatin was dissolved in 5 ml of water with heating. After cooling, 5 ml of the above-described methanol solution was added thereto and the mixture well mixed. The resulting mixture solution was uniformly coated on a triacetyl cellulose support and dried to prepare samples. The absorbance of each of the samples at λ max (around 300 nm) was previously measured, then the sample was heated on a hot plate at a definite temperature. The change in absorbance versus time was plotted to calculate first-order reaction rate. Several examples of the reaction rate constants measured by the above-described method are given below.

Half-Life Period t1/2	SMILES	K at 140° C. (× 10^2), first-order reaction rate constant
18.7 s	CCN(CC)C(=O)ONC(=O)c1ccccc1O [Base Precursor No. (37)]	3.7
7.7 s	CCCCN(CCCC)C(=O)ONC(=O)c1ccccc1O [Base Precursor No. (38), Salicylhydroxamic Acid N,N-Dibutylcarbamate]	9.0

SMILES	Half-Life Period t1/2	K at 140° C. (× 10^2), first-order reaction rate constant
CN(C)C(=O)ONC(=O)c1ccccc1O [Base Precursor No. (1), Salicylhydroxamic Acid, N,N-Dimethylcarbamate]	10.3 s	6.7
